Structures are written as SMILES.

The test system of this experiment is major urinary protein (MUP). The experiment is described as follows: QCM ligand-binding test: shift of resonant frequency on binding of evaporated ligand to immobilized MUP. Also noted: species or system mouse. To be noted: MUP immobilized on 10 MHz AT-cut QCM chip; odorant sample evaporated at 50° C. and pumped into detection chamber. How it is done: The preferred electronic nose technology of the present invention is piezoelectric-based. Measurements are performed by detecting the binding of analytes (ligands) onto the sensing elements immobilized on piezoelectric materials, e.g., quartz crystal. The adsorption of ligand induces a shift in the oscillation frequency proportional to the mass of the encountered ligand. The operating performance of the present invention is described as bellow:
Gold electrodes of quartz crystal microbalance (QCM) surface are cleaned by immersing in 1.2 N NaOH and then in 1.2 N HCl. After rinsing and drying, the QCM electrodes are soaked in 1 mM 2-aminoethanethiol/DMSO solution for 12 hours and washed by double distilled water for 10 min. Then the QCM electrodes are dried in oven and dripped with 4 μl of 2.5% glutaldehyde for 1 hour. Two μl of 1% polyethylenimine/methanol (PEI/MeOH) solution are added onto activated surface of QCM in a closed chamber at room temperature for 12 hours. Finally, the QCM chips are washed two times and dried in oven.
Activated QCM chips are dipped in 2.5% glutaldehyde solution for 1 hour, and then MUP solution (20 μg/ml in 10 mM phosphate buffer, pH 7.4) are added and kept for 1 hour. Blocking the activated surface of QCM chips is performed by 100 mM glycine.
A sample is respectively applied in a syringe and kept in an oven at 50° C. An AT-cut QCM device with basic resonant frequency of 10 MHz is employed to determine the adsorption of odorant vapor. The evaporated odorant sample is pumped into the detection chamber of QCM and the shift of resonant frequency is recorded.
A variety of ligands are surveyed according to the above procedures. Table I lists the changes of signal in frequency upon the bindings of different ligands, including phenylacetate, propylbutyrate, hexylbutyrate, benzylbutyrate, propyltiglate, hexyltiglate, and benzyltiglate.
Consider `C/C=C(\C)C(=O)OCc1ccccc1` [benzyltiglate], for which the “Change of Signal (in frequency f)” value is on record as 43.

As for `CCCC(=O)OCc1ccccc1` [benzylbutyrate], the “Change of Signal (in frequency f)” value came out at 43.

As for `C/C=C(\C)C(=O)OCCCCCC` [hexyltiglate], the “Change of Signal (in frequency f)” value is listed as 55.

In the case of `CCCCCCOC(=O)CCC` [hexylbutyrate], the “Change of Signal (in frequency f)” value is on record as 23.

For the molecule `C/C=C(\C)C(=O)OCCC` [propyltiglate], the “Change of Signal (in frequency f)” value is 29.

For `CCCOC(=O)CCC` [propylbutyrate], the “Change of Signal (in frequency f)” value stood at 26.

The values above are taken from patent US20040197932A1, “Bio-vehicle, biosensor and biotransducer system” (priority 2003, published 2004).
